Assay results as given in PMC8621101, “Inhibition of XPO-1 Mediated Nuclear Export through the Michael-Acceptor Character of Chalcones” (Pharmaceuticals, 2021).

Experiments:
[1] = Stability in phosphate-buffered solution (PBS); type: physicochemical
From the text: It has been described by performing kinetic measurements in α-X-2′3,4,4’-tetramethylchalcones that the nature of the substituent at position α of the chalcone affects their reactivity as electrophiles versus thiol groups. In such series, the α-COOEt substituent led to a similar reactivity as that of the α-H chalcone; the α-CH3 chalcone was poorly electrophilic, while the α-CN chalcone was the most electrophilic. Thus, in the naphthyl series (Figure 3), the synthesis of the chalcones where R1 = H, COOCH3, CH3 or CN was accomplished. The reaction of 1-(naphthalen-2-yl)ethan-1-one (11) with pyrimidine-5-carbaldehyde in the presence of Ba(OH)2 afforded α-H chalcone 9 in a 55% yield (Scheme 1). […] Reaction of the ester 12 with NH3/dioxane at 110 °C [29] led to the amide 14 that was further transformed into the chalcone 15. On the other hand, reaction of naphthalene 16 with propionyl chloride under Friedel–Crafts acylation conditions, as described, provided the 2-acyl derivative 17, together with a small proportion of its 1-isomer. This mixture of isomers reacted with pyrimidine-5-carbaldehyde to yield the α-CH3 chalcone 18 (30%). Finally, the synthesis of the α-CN derivative was addressed by the reaction of 2-methylnaphthoate (19) with acetonitrile to provide 3-oxopropanenitrile 20 [32], which was further transformed into the α-CN chalcone 21.

K-562 cells = assay: Cell proliferation assay (IncuCyte confluence), K-562; type: cell-based; settings: Homo sapiens, K562; K-562 chronic myeloid leukemia; 72 h; mean of two independent experiments ± SEM; read-out: IC50 antiproliferative activity K-562
Description: (§1) Cancer cell lines HCT-116, NCI-H460, HL-60, K-562 and Z-138 were acquired from the American Type Culture Collection (ATCC, Manassas, VA, USA). The DND-41 cell line was purchased from the Deutsche Sammlung von Mikroorganismen und Zellkulturen (DSMZ Leibniz-Institut, Brunswick, Germany), and the HAP-1 cell line was ordered from Horizon Discovery (Horizon Discovery Group, Water Beach, UK). All cell lines were cultured as recommended by the suppliers. Culture media were purchased from Gibco Life Technologies and supplemented with 10% fetal bovine serum (HyClone, GE Healthcare Life Sciences, Chicago, Illinois, USA).
(§2) Adherent cell lines HCT-116, NCI-H460 and Hap-1 cells were seeded at a density between 500 and 1500 cells per well in 384-well tissue culture plates (Greiner). After overnight incubation, cells were treated with different concentrations of the test compounds. Suspension cell lines HL-60, K-562, Z-138 and DND-41 were seeded at densities ranging from 2500 to 5500 cells per well in 384-well culture plates containing the test compounds at the same concentration points.

HCT-116 cells = assay: Cell proliferation assay (IncuCyte confluence), HCT-116; type: cell-based; settings: Homo sapiens; HCT-116 colorectal carcinoma; 72 h; mean of two independent experiments ± SEM; read-out: IC50 antiproliferative activity HCT-116
Description: as §1, §2

NCI-H460 cells = assay: Cell proliferation assay (IncuCyte confluence), NCI-H460; type: cell-based; settings: Homo sapiens; NCI-H460 lung carcinoma; 72 h; mean of two independent experiments ± SEM; read-out: IC50 antiproliferative activity NCI-H460
Description: as §1, §2

Hap-1 cells = assay: Cell proliferation assay (IncuCyte confluence), Hap-1; type: cell-based; settings: Homo sapiens, HAP1; Hap-1 chronic myeloid leukemia; 72 h; mean of two independent experiments ± SEM; read-out: IC50 antiproliferative activity Hap-1
Description: as §1, §2

DND-41 cells = assay: Cell proliferation assay (IncuCyte confluence), DND-41; type: cell-based; settings: DND41; DND-41 acute lymphoblastic leukemia; 72 h; mean of two independent experiments ± SEM; read-out: IC50 antiproliferative activity DND-41
Description: as §1, §2

XPO1 (Jurkat XPO1^WT) = target: T1, XPO1 (Jurkat XPO1^WT) (Homo sapiens, UniProt O14980); assay: RanBP1 immunofluorescence (XPO1-mediated nuclear export) in wild-type Jurkat cells; type: cell-based; settings: positive control at 1 μM, 3 h
T1 construct: RanBP1 immunofluorescence staining was performed on both wild type and mutant XPO1^C528S Jurkat cells; endogenous in cells; host or cells: wild-type Jurkat leukemia cells
Description: (§3) The effect of the mutation on the activity of the inhibitors was assessed by the visualization of the subcellular localization of the XPO1 cargo RanBP1.
(§4) Stably transfected HeLa NLSSV40-AcGFP-NESPKI were cultured as described in Vercruysse et al.
(§5) Cells were harvested at 400× g, washed in PBS and then transferred into an 8-well µ-Slide (Ibidi) pretreated with 0.1% (w/v) poly-L-lysine (Sigma). Cells were allowed to adhere to the slides and then subsequently fixed (4% PFA in PBS), washed and permeabilized (0.2% Triton X-100 in PBS). Further immunofluorescence staining was then performed according to standard procedures. Employed antibodies were rabbit anti-RanBP1 (ab97659, Abcam, Cambridge, UK) at a 1:500 dilution and secondary Alexa Fluor 488 goat anti-rabbit antibody (A11008, Invitrogen, ThermoFisher Scientific). Cell nuclei were counterstained with DAPI, and the samples were imaged by confocal microscopy on a Leica TCS SP5 confocal microscope (Leica Microsystems, Weitzlar, Germany), employing a HCX PL APO 63× (NA 1.2) water immersion objective. Subsequently, fluorescence was read on an ArrayScan XTI High Content Reader (Thermo Fisher Scientific, Waltham, MA, USA). Nuclear and cytoplasmic compartments were segmented, and their average pixel intensities in the green channel were quantitated similarly as for the XPO1 phenotypic reporter assay.

HL-60 cells = assay: Cell proliferation assay (IncuCyte confluence), HL-60; type: cell-based; settings: Homo sapiens; HL-60 acute myeloid leukemia; 72 h; mean of two independent experiments ± SEM; read-out: IC50 antiproliferative activity HL-60
Description: as §1, §2

Z-138 cells = assay: Cell proliferation assay (IncuCyte confluence), Z-138; type: cell-based; settings: Homo sapiens; Z-138 non-Hodgkin lymphoma; 72 h; mean of two independent experiments ± SEM; read-out: IC50 antiproliferative activity Z-138
Description: as §1, §2

[2] = target: T2, XPO1^C528S (Jurkat XPO1^C528S) (Homo sapiens, UniProt O14980, C528S); assay: RanBP1 immunofluorescence (XPO1-mediated nuclear export) in mutant XPO1^C528S Jurkat cells; type: cell-based; settings: positive control at 1 μM, 3 h
T2 construct: CRISPR/Cas9 genome editing of the Jurkat cell line was performed as in Neggers et al. [43] to generate a XPO1^C528S mutant cell line; endogenous in cells; host or cells: Jurkat cells genome-edited by CRISPR/Cas9 at the XPO1 locus (XPO1^C528S)
Description: as §3, §4, §5

T2 sequence (O14980 whole entry C528S): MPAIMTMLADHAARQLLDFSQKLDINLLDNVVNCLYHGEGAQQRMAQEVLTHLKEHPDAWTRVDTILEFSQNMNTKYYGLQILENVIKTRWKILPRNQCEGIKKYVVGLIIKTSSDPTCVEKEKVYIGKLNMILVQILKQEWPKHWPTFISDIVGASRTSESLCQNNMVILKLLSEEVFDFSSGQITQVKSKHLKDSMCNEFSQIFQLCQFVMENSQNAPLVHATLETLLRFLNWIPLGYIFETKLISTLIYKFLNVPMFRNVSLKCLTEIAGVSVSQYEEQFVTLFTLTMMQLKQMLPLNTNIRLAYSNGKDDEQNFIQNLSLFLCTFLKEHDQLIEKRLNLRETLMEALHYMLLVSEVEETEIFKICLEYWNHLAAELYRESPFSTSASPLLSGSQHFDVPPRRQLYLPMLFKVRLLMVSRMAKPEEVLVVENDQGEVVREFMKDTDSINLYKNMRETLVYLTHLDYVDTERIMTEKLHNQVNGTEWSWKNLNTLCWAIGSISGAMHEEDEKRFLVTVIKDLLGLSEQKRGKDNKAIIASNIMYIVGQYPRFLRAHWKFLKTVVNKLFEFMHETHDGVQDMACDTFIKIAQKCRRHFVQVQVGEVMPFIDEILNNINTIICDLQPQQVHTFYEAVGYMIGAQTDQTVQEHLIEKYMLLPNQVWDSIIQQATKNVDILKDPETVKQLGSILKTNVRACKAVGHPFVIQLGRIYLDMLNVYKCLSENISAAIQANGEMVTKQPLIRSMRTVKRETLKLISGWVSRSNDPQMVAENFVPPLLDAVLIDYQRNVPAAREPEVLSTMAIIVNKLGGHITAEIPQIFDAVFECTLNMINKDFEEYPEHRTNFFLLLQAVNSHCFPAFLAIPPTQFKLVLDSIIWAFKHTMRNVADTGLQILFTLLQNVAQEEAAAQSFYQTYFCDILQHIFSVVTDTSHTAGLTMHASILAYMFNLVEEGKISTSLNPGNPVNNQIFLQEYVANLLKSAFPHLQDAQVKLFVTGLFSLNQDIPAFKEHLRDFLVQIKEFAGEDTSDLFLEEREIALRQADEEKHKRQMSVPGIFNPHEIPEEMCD

Question: With `N#C/C(=C\c1cncnc1)C(=O)c1ccc2ccccc2c1` [Compound 21, (E)-2-Cyano-1-(naphthalene-2-yl)-3-(pyrimidin-5-yl)prop-2-en-1-one] as the compound, how does the “Stability in PBS” value [1] read?
Answer: very unstable and readily decomposed

Question: For `O=C(/C=C\n1cnc(-c2cc(C(F)(F)F)cc(C(F)(F)F)c2)n1)NNc1cnccn1` [KPT-330, selinexor, reference compound], which IC50 (K-562 cells) is on record?
Answer: 90 nM

Question: And the IC50 (HCT-116 cells)?
Answer: 100 ± 100 nM

Question: What about the IC50 (NCI-H460 cells) of the same compound?
Answer: 120 ± 80 nM

Question: And the IC50 (Hap-1 cells)?
Answer: 70 ± 30 nM

Question: What about the IC50 (DND-41 cells) of the same compound?
Answer: 50 nM

Question: What about the “Subcellular localization of RanBP1, wild-type Jurkat” value (XPO1 (Jurkat XPO1^WT)) of the same compound?
Answer: RanBP1 was accumulated in the nucleus

Question: And the IC50 (HL-60 cells)?
Answer: 110 ± 100 nM

Question: And the IC50 (Z-138 cells)?
Answer: 400 ± 400 nM

Question: And the “Subcellular localization of RanBP1, mutant XPO1^C528S Jurkat” value [2]?
Answer: RanBP1 remained in the cytoplasm
